Assay results reported in PubChem BioAssay AID1918956 (Molecular Pharmacology Branch, DTP, NCI, 2023).

Test system: OVCAR-5 complex spheroids, viability
Test: Anticancer human tumor OVCAR-5 cell line growth inhibition;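 further: spheroids exposed to agents for seven days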;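 on viability, T/C: 100% = DMSO vehicle control wells viability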
Settings: for IC50: curve of first compound; for viability, T/C: stronger effect = lower value
Source text: Multicellular complex tumor spheroid response to LSD1 Inhibitor Iadademstat in combination with a variety of drugs and investigational agents in selected tumor cell lines
The current study was undertaken to assess response to LSD1 inhibitors in combination with standard-of-care drugs and investigational agents in solid tumor complex spheroid models as well as in the K-562 leukemia. Complex spheroids include a stromal component modeled by human endothelial cells (HUVEC) and fibroblasts modeled by human mesenchymal stem cells (MSCs). The concentration ranges selected for each drug and investigational agent were based upon clinically achievable concentrations if the clinical Cmax of the agent was known.
Compounds. The drugs and investigational agents used in this study are listed on Table 1. All of the agents used, including staurosporine (NSC755774) and gemcitabine (NSC613327), were obtained from the Developmental Therapeutics Program, NCI. FDA-approved anticancer drugs are available from the NCI at http://dtp.nci.nih.gov/branches/dscb/oncology_drugset_explanation.html. Drugs and investigational agents were >95% pure by proton nuclear magnetic resonance (NMR) and liquid chromatography/mass spectrometry (LC/MS). Stock solutions were prepared at 400x in DMSO, stored at -70 degrees C, and diluted in fresh medium prior to their use. The final concentration of DMSO in cell culture wells never exceeded 0.25% (v/v). The FDA-approved anticancer drug set is available from the Developmental Therapeutics Program at https://dtp.cancer.gov/organization/dscb/obtaining/available_plates.htm. All drugs and investigational agents were tested over a range starting from a high concentration at or near the clinical Cmax and decreasing in half-log increments. If the clinical Cmax for an agent had not been determined, the highest concentration tested was 10 microM.
Cell Lines. The patient-derived cancer cell (PDC) lines: 292921-168-R-J2-PDC, K24384-001-R-PDC, and 521955-158-R2-J5-PDC pancreatic carcinomas, 556581-035-R-J1 ovarian carcinoma, 324938-238-R-J1-PDC, 855422-203-R-J1-PDC and 883617-216-R-J1-PDC urothelial bladder carcinomas, 743489-274-T-PDC renal cell carcinoma, 138582-R-J1 Merkel cell tumor, K60290-347-R-J1 and K57222-313-R-J1-PDC glioblastomas, 653999-131-R-J2-PDC, LG0703-F948-PDC, and 349418-098-R-PDC non-small cell lung carcinomas, 885512-296-R-J2-PDC, 171881-019-R-J1-PDC breast carcinomas and 186277-243-T-J2-PDC and 233499-124-R-J2-PDC colon carcinomas were obtained from the NCI Patient-Derived Models Repository (PDMR, https://pdmr.cancer.gov). The established cell lines NCI/ADR-RES (RRID:CVCL_14520 and OVCAR-5 (RRID:CVCL_1628) ovarian carcinomas, 786-O (RRID:CVCL_1051) and A498 […] renal cell carcinoma, NCI-H211 (ATCC, cat. CRL-5824; RRID:CVCL_1529), NCI-H196 (ATCC, cat. CRL-5823, RRID:CVCL_1509), SW 1271 (ATCC, cat. CRL-2177, RRID:CVCL_1716) and NCI-H1876 (ATCC, cat. CRL-5902, RRID:CVCL_1503) small cell lung carcinomas, MDA-MB-231 (RRID:CVCL_0062) and MDA-MB-468 (RRID:CVCL_0419)breast carcinomas (10-12). Pooled donor human umbilical vein endothelial cells (HUVEC, Lonza, cat. CC-2519) and human mesenchymal stem cells (hMSC, Lonza, cat. PT-2501) were purchased from Lonza (Walkersville, MD).
Cell Culture. All cells were maintained in an incubator at 37 degrees C and 5% CO2 with 95% humidity. The PDC lines were cultured according to standard operating procedures established by the NCI PDMR (https://pdmr.cancer.gov). Briefly all PDCs were thawed and cultured in Matrigel-coated flasks prepared with a working solution of 1X Ham's F-12 nutrient mix, without supplementation (Invitrogen, Waltham, MA, cat. 11765054), 100 U/mL penicillin-streptomycin (Invitrogen, cat. 15140122), and 2.5% Matrigel (Corning Inc., Corning, NY, cat. 354248) for the first three passages. […]

[1] = second compound 0.1 µM, first compound 0.00316 µM
[2] = second compound 0.1 µM, first compound 0.01 µM
[3] = second compound 0.1 µM, first compound 0.0316 µM
[4] = second compound 0.1 µM, first compound 0.1 µM
[5] = second compound 0.1 µM, first compound 0.316 µM
[6] = second compound 0.1 µM, first compound 1 µM
[7] = second compound 0.316 µM, first compound 0.00316 µM
[8] = second compound 0.316 µM, first compound 0.01 µM
[9] = second compound 0.316 µM, first compound 0.0316 µM
[10] = second compound 0.316 µM, first compound 0.1 µM
[11] = second compound 0.316 µM, first compound 0.316 µM
[12] = second compound 0.316 µM, first compound 1 µM
[13] = second compound 1 µM, first compound 0.00316 µM
[14] = second compound 1 µM, first compound 0.01 µM
[15] = second compound 1 µM, first compound 0.0316 µM
[16] = second compound 1 µM, first compound 0.1 µM
[17] = second compound 1 µM, first compound 0.316 µM
[18] = second compound 1 µM, first compound 1 µM
[19] = second compound 3.16 µM, first compound 0.00316 µM
[20] = second compound 3.16 µM, first compound 0.01 µM
[21] = second compound 3.16 µM, first compound 0.0316 µM
[22] = second compound 3.16 µM, first compound 0.1 µM
[23] = second compound 3.16 µM, first compound 0.316 µM
[24] = second compound 3.16 µM, first compound 1 µM
[25] = second compound 10 µM, first compound 0.00316 µM
[26] = second compound 10 µM, first compound 0.01 µM
[27] = second compound 10 µM, first compound 0.0316 µM
[28] = second compound 10 µM, first compound 0.1 µM
[29] = second compound 10 µM, first compound 0.316 µM
[30] = second compound 10 µM, first compound 1 µM

| SMILES | IC50 (second compound 0.1 µM) [µM] | IC50 (second compound 0.316 µM) [µM] | IC50 (second compound 1 µM) [µM] | IC50 (second compound 3.16 µM) [µM] | IC50 (second compound 10 µM) [µM] | viability, T/C [1] [%] | viability, T/C [2] [%] | viability, T/C [3] [%] | viability, T/C [4] [%] | viability, T/C [7] [%] | viability, T/C [8] [%] | viability, T/C [9] [%] | viability, T/C [10] [%] | viability, T/C [13] [%] | viability, T/C [14] [%] | viability, T/C [15] [%] | viability, T/C [16] [%] | viability, T/C [19] [%] | viability, T/C [20] [%] | viability, T/C [21] [%] | also measured |
| --- | --- | --- | --- | --- | --- | --- | --- | --- | --- | --- | --- | --- | --- | --- | --- | --- | --- | --- | --- | --- | --- |
| O=C(C=Cn1cnc(-c2cc(C(F)(F)F)cc(C(F)(F)F)c2)n1)NNc1cnccn1 + NC1CCC(NC2CC2c2ccccc2)CC1 | 0.235 | 0.215 | > 1 | 0.705 | 0.312 | 97.6 | 88.2 | 67.2 | 55 | 104 | 85.8 | 69.6 | 51 | 88.4 | 84.1 | 68.8 | 59.4 | 97.9 | 88.1 | 74.4 | viability, T/C [5]: 50.3%; viability, T/C [6]: 44.9%; viability, T/C [11]: 49.6%; viability, T/C [12]: 45.7%; viability, T/C [17]: 54.5%; viability, T/C [18]: 50.3%; viability, T/C [22]: 60%; viability, T/C [23]: 57.2%; viability, T/C [24]: 46.9%; viability, T/C [25]: 83.6%; viability, T/C [26]: 84.7%; viability, T/C [27]: 70.6%; viability, T/C [28]: 59.8%; viability, T/C [29]: 50%; viability, T/C [30]: 46.3% |
| COc1cc(Nc2ncc3c(n2)-c2ccc(Cl)cc2C(c2c(F)cccc2OC)=NC3)ccc1C(=O)O + NC1CC1c1ccc(-c2cccc(O)c2)cc1 | 0.0862 | 0.0989 | 0.0623 | 0.0545 | 0.0477 | 76.9 | 73.1 | 60.4 | 47.3 | 88.9 | 84.4 | 63.9 | 50.1 | 76.1 | 82.1 | 57.4 | 46.4 | 81.3 | 72 | 53.6 | viability, T/C [5]: 47.1%; viability, T/C [6]: 39.8%; viability, T/C [11]: 49.6%; viability, T/C [12]: 44.6%; viability, T/C [17]: 47.8%; viability, T/C [18]: 40.1%; viability, T/C [22]: 46.1%; viability, T/C [23]: 44.3%; viability, T/C [24]: 42.1%; viability, T/C [25]: 87.6%; viability, T/C [26]: 72%; viability, T/C [27]: 50.7%; viability, T/C [28]: 50.3%; viability, T/C [29]: 49.7%; viability, T/C [30]: 43.7% |
| Nc1ncn(C2CC(O)C(CO)O2)c(=O)n1 (stereo not given) + NC1CC1c1ccc(-c2cccc(O)c2)cc1 | > 1 | > 1 | > 1 | > 1 | > 1 | 103 | 98.5 | 83.4 | 74.2 | 93.6 | 98.5 | 87.4 | 70.5 | 94.9 | 99.6 | 87.6 | 66.1 | 89 | 85.9 | 70.3 | viability, T/C [5]: 68.2%; viability, T/C [6]: 65.8%; viability, T/C [11]: 70.2%; viability, T/C [12]: 66.2%; viability, T/C [17]: 67.8%; viability, T/C [18]: 66.7%; viability, T/C [22]: 72%; viability, T/C [23]: 61.1%; viability, T/C [24]: 64.5%; viability, T/C [25]: 83%; viability, T/C [26]: 80.1%; viability, T/C [27]: 72%; viability, T/C [28]: 60.3%; viability, T/C [29]: 58%; viability, T/C [30]: 61.2% |
| CC[C@@]1(O)C(=O)OCc2c1cc1n(c2=O)Cc2cc3c(CN(C)C)c(O)ccc3nc2-1 + NC1CCC(NC2CC2c2ccccc2)CC1 | 0.00566 | 0.0109 | 0.0112 | 0.0121 | 0.00989 | 58.8 | 50.2 | 48 | 23.4 | 56.5 | 49.8 | 50 | 24 | 56.9 | 51.2 | 47.7 | 26.7 | 62.4 | 51.3 | 49.3 | viability, T/C (second compound 0.1 µM, first compound 0.000316 µM): 103%; viability, T/C (second compound 0.1 µM, first compound 0.001 µM): 105%; viability, T/C (second compound 0.316 µM, first compound 0.000316 µM): 112%; viability, T/C (second compound 0.316 µM, first compound 0.001 µM): 97.7%; viability, T/C (second compound 1 µM, first compound 0.000316 µM): 105%; viability, T/C (second compound 1 µM, first compound 0.001 µM): 93.3%; viability, T/C (second compound 3.16 µM, first compound 0.000316 µM): 109%; viability, T/C (second compound 3.16 µM, first compound 0.001 µM): 98.5%; viability, T/C [22]: 28.2%; viability, T/C (second compound 10 µM, first compound 0.000316 µM): 91.1%; viability, T/C (second compound 10 µM, first compound 0.001 µM): 85.5%; viability, T/C [25]: 51.8%; viability, T/C [26]: 49.3%; viability, T/C [27]: 48.7%; viability, T/C [28]: 27.7% |
